Test results: patent US6916812B2, “Alpha-aminoamide derivatives as melanocortin agonists” (Bristol-Myers Squibb Company, priority 2001, dated 2005)
Where two headings read alike, the source gives them in different places.

Biological target: T1, cloned human MC4R (Homo sapiens, UniProt P32245)
T1 construct: made in house; host or cells: Hi5 insect cells (baculovirus infection); membrane preparation
Test: Membrane binding assay: competitive inhibition of [125I]NDP-α-MSH binding
Details: for IC50: read-out: MC4R IC50; for inhibition at 10 µM: read-out: Displacement Rate (%) (at 10 μM)

[1] = at 10 μM, [125I]NDP-α-MSH displacement

T1 sequence (P32245 whole entry): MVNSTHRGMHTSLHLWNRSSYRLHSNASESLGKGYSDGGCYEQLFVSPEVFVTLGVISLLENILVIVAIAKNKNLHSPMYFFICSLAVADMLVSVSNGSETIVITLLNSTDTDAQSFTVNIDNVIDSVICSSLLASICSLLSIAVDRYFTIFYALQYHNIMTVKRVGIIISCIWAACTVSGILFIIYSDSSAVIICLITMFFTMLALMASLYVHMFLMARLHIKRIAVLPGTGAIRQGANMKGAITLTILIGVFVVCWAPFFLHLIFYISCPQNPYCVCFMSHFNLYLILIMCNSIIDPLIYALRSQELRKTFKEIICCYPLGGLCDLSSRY

Row | Displacement Rate (%) (at 10 μM) [1] | IC50 [µM] | inhibition at 10 µM [1] [%] | inhibition at 10 µM [%] | Compound
1 | ++ (++ = 71-90) | 1.5 to 3 |  |  | COc1ccc(CCCOc2ccc(C[C@H](N)C(=O)N3CCN(Cc4cccc(Cl)c4Cl)CC3)cc2)cc1 [Example 264]
2 | ++ (++ = 71-90) | < 1.5 |  |  | COc1ccc(CCCOc2ccc(C[C@H](N)C(=O)N3CCN(Cc4cccc(Cl)c4Cl)CC3)cc2)cc1OC [Example 265]
3 | +++ (+++ = 91-100) | < 1.5 |  |  | CCN(CCOc1ccc(C[C@H](N)C(=O)N2CCN(Cc3cccc(Cl)c3Cl)CC2)cc1)c1cccc(C)c1 [Example 282]
4 |  | < 1.5 | 91 to 100 |  | N[C@@H](Cc1ccc(-c2ccc(Cl)c(Cl)c2)cc1)C(=O)N1CCN(Cc2cccc(Cl)c2Cl)CC1 [Example 294]
5 |  | < 1.5 | 91 to 100 |  | N[C@@H](Cc1ccc(-c2ccc(Cl)cc2)cc1)C(=O)N1CCN(Cc2cccc(Cl)c2Cl)CC1 [Example 298]
6 |  | < 1.5 | 91 to 100 |  | N[C@@H](Cc1ccc(-c2cccc(Cl)c2Cl)cc1)C(=O)N1CCN(Cc2cccc(Cl)c2Cl)CC1 [Example 299]
7 |  | < 1.5 | 91 to 100 |  | N[C@@H](Cc1ccc(-c2ccc(C(F)(F)F)cc2)cc1)C(=O)N1CCN(Cc2cccc(Cl)c2Cl)CC1 [Example 304]
8 |  | < 1.5 | 91 to 100 |  | CC(C)(C)c1ccc(-c2ccc(C[C@H](N)C(=O)N3CCN(Cc4cccc(Cl)c4Cl)CC3)cc2)cc1 [Example 305]
9 |  | < 1.5 | 91 to 100 |  | N[C@@H](Cc1ccc(-c2ccccc2F)cc1)C(=O)N1CCN(Cc2cccc(Cl)c2Cl)CC1 [Example 309]
10 |  | < 1.5 | 91 to 100 |  | CCOc1ccc(-c2ccc(C[C@H](N)C(=O)N3CCN(Cc4cccc(Cl)c4Cl)CC3)cc2)cc1 [Example 310]
11 |  | < 1.5 | 91 to 100 |  | N[C@@H](Cc1ccc(-c2cccc(F)c2)cc1)C(=O)N1CCN(Cc2cccc(Cl)c2Cl)CC1 [Example 311]
12 |  | 1.5 to 3 | 91 to 100 |  | N[C@@H](Cc1ccc(-c2cc(Cl)cc(Cl)c2)cc1)C(=O)N1CCN(Cc2cccc(Cl)c2Cl)CC1 [Example 312]
13 | ++ (++ = 71-90) | 1.5 to 3 |  |  | COc1ccc(-c2ccc(C[C@H](N)C(=O)N3CCN(Cc4cccc(Cl)c4Cl)CC3)cc2)c(OC)c1 [Example 322]
14 |  | > 3 | 71 to 90 |  | N[C@@H](Cc1ccc(-c2cccc([N+](=O)[O-])c2)cc1)C(=O)N1CCN(Cc2cccc(Cl)c2Cl)CC1 [Example 330]
15 |  | > 3 | 35 to 70 |  | CC(C)c1ccc(-c2ccc(C[C@H](N)C(=O)N3CCN(Cc4cccc(Cl)c4Cl)CC3)cc2)cc1 [Example 332]
16 |  | < 1.5 |  | 91 to 100 | N[C@@H](Cc1ccc(-c2cccc3c2Sc2ccccc2O3)cc1)C(=O)N1CCN(Cc2cccc(Cl)c2Cl)CC1 [Example 335]
17 |  | < 1.5 |  | 91 to 100 | N[C@@H](Cc1ccc(-c2cccc3c2oc2ccccc23)cc1)C(=O)N1CCN(Cc2cccc(Cl)c2Cl)CC1 [Example 336]
18 |  | < 1.5 |  | 91 to 100 | N[C@@H](Cc1ccc(-c2cc3ccccc3s2)cc1)C(=O)N1CCN(Cc2cccc(Cl)c2Cl)CC1 [Example 338]
19 |  | < 1.5 |  | 91 to 100 | N[C@@H](Cc1ccc(-c2ccsc2)cc1)C(=O)N1CCN(Cc2cccc(Cl)c2Cl)CC1 [Example 339]
20 |  | 1.5 to 3 |  | 71 to 90 | N[C@@H](Cc1ccc(-c2cccc3cccnc23)cc1)C(=O)N1CCN(Cc2cccc(Cl)c2Cl)CC1 [Example 340]

The remaining lines, values behind:

Row | Compound | Displacement Rate (%) (at 10 μM) [1] | IC50 [µM] | inhibition at 10 µM [1] [%] | inhibition at 10 µM [%]
21 | CN(CCOc1ccc(C[C@H](N)C(=O)N2CCN(Cc3cccc(Cl)c3Cl)CC2)cc1)Cc1ccccc1 [Example 285] | ++ (++ = 71-90) | 1.5 to 3 |  | 
22 | CN(CCCOc1ccc(C[C@H](N)C(=O)N2CCN(Cc3cccc(Cl)c3Cl)CC2)cc1)Cc1ccccc1 [Example 287] | + (+ = 35-70) | > 3 |  | 
23 | N[C@@H](Cc1ccc(-c2ccccc2)cc1)C(=O)N1CCN(Cc2cccc(Cl)c2Cl)CC1 [Example 289] |  | < 1.5 |  | 
24 | Cc1ccc(-c2ccc(C[C@H](N)C(=O)N3CCN(Cc4cccc(Cl)c4Cl)CC3)cc2)cc1 [Example 290] |  | < 1.5 | 91 to 100 | 
25 | CCc1ccc(-c2ccc(C[C@H](N)C(=O)N3CCN(Cc4cccc(Cl)c4Cl)CC3)cc2)cc1 [Example 291] |  | < 1.5 | 91 to 100 | 
26 | N[C@@H](Cc1ccc(-c2ccc(OC(F)(F)F)cc2)cc1)C(=O)N1CCN(Cc2cccc(Cl)c2Cl)CC1 [Example 292] |  | < 1.5 | 91 to 100 | 
27 | N[C@@H](Cc1ccc(-c2ccc3ccccc3c2)cc1)C(=O)N1CCN(Cc2cccc(Cl)c2Cl)CC1 [Example 293] |  | < 1.5 | 91 to 100 | 
28 | CSc1ccc(-c2ccc(C[C@H](N)C(=O)N3CCN(Cc4cccc(Cl)c4Cl)CC3)cc2)cc1 [Example 295] |  | < 1.5 | 91 to 100 | 
29 | N[C@@H](Cc1ccc(-c2ccc(F)cc2)cc1)C(=O)N1CCN(Cc2cccc(Cl)c2Cl)CC1 [Example 296] |  | < 1.5 | 91 to 100 | 
30 | N[C@@H](Cc1ccc(-c2cc(C(F)(F)F)cc(C(F)(F)F)c2)cc1)C(=O)N1CCN(Cc2cccc(Cl)c2Cl)CC1 [Example 297] |  | < 1.5 | 91 to 100 | 
31 | N[C@@H](Cc1ccc(-c2cccc3ccccc23)cc1)C(=O)N1CCN(Cc2cccc(Cl)c2Cl)CC1 [Example 300] |  | < 1.5 | 91 to 100 | 
32 | N[C@@H](Cc1ccc(-c2cccc(Cl)c2)cc1)C(=O)N1CCN(Cc2cccc(Cl)c2Cl)CC1 [Example 301] |  | < 1.5 | 91 to 100 | 
33 | N[C@@H](Cc1ccc(-c2ccc(Oc3ccccc3)cc2)cc1)C(=O)N1CCN(Cc2cccc(Cl)c2Cl)CC1 [Example 302] |  | < 1.5 | 91 to 100 | 
34 | N[C@@H](Cc1ccc(-c2ccc(F)c(Cl)c2)cc1)C(=O)N1CCN(Cc2cccc(Cl)c2Cl)CC1 [Example 306] |  | < 1.5 | 91 to 100 | 
35 | N[C@@H](Cc1ccc(-c2ccc(Cl)cc2Cl)cc1)C(=O)N1CCN(Cc2cccc(Cl)c2Cl)CC1 [Example 307] |  | < 1.5 | 91 to 100 | 
36 | CCOc1cccc(-c2ccc(C[C@H](N)C(=O)N3CCN(Cc4cccc(Cl)c4Cl)CC3)cc2)c1 [Example 308] |  | < 1.5 | 91 to 100 | 
37 | Cc1ccccc1-c1ccc(C[C@H](N)C(=O)N2CCN(Cc3cccc(Cl)c3Cl)CC2)cc1 [Example 313] |  | 1.5 to 3 | 91 to 100 | 
38 | N[C@@H](Cc1ccc(-c2ccc(-c3ccccc3)cc2)cc1)C(=O)N1CCN(Cc2cccc(Cl)c2Cl)CC1 [Example 314] |  | 1.5 to 3 | 91 to 100 | 

Row | Compound | Displacement Rate (%) (at 10 μM) [1] | IC50 [µM] | inhibition at 10 µM [1] [%] | inhibition at 10 µM [%]
39 | N[C@@H](Cc1ccc(-c2ccccc2C(F)(F)F)cc1)C(=O)N1CCN(Cc2cccc(Cl)c2Cl)CC1 [Example 315] |  | 1.5 to 3 | 91 to 100 | 
40 | COc1ccc(-c2ccc(C[C@H](N)C(=O)N3CCN(Cc4cccc(Cl)c4Cl)CC3)cc2)cc1 [Example 317] |  | 1.5 to 3 | 91 to 100 | 
41 | Cc1cccc(-c2ccc(C[C@H](N)C(=O)N3CCN(Cc4cccc(Cl)c4Cl)CC3)cc2)c1 [Example 318] |  | 1.5 to 3 | 91 to 100 | 
42 | N[C@@H](Cc1ccc(-c2ccc3c(c2)OCO3)cc1)C(=O)N1CCN(Cc2cccc(Cl)c2Cl)CC1 [Example 319] | ++ (++ = 71-90) | 1.5 to 3 |  | 
43 | COc1ccc(OC)c(-c2ccc(C[C@H](N)C(=O)N3CCN(Cc4cccc(Cl)c4Cl)CC3)cc2)c1 [Example 320] | +++ (+++ = 91-100) | 1.5 to 3 |  | 
44 | N[C@@H](Cc1ccc(-c2ccccc2Cl)cc1)C(=O)N1CCN(Cc2cccc(Cl)c2Cl)CC1 [Example 321] |  | 1.5 to 3 | 91 to 100 | 
45 | CN(C)c1ccc(-c2ccc(C[C@H](N)C(=O)N3CCN(Cc4cccc(Cl)c4Cl)CC3)cc2)cc1 [Example 323] |  | 1.5 to 3 | 71 to 90 | 
46 | N[C@@H](Cc1ccc(-c2c(Cl)cccc2Cl)cc1)C(=O)N1CCN(Cc2cccc(Cl)c2Cl)CC1 [Example 324] |  | 1.5 to 3 | 91 to 100 | 
47 | COc1cccc(-c2ccc(C[C@H](N)C(=O)N3CCN(Cc4cccc(Cl)c4Cl)CC3)cc2)c1 [Example 325] |  | 1.5 to 3 | 71 to 90 | 
48 | COc1ccccc1-c1ccc(C[C@H](N)C(=O)N2CCN(Cc3cccc(Cl)c3Cl)CC2)cc1 [Example 326] |  | 1.5 to 3 | 71 to 90 | 
49 | COc1ccc(Cl)cc1-c1ccc(C[C@H](N)C(=O)N2CCN(Cc3cccc(Cl)c3Cl)CC2)cc1 [Example 327] | +++ (+++ = 91-100) | 1.5 to 3 |  | 
50 | CC(=O)c1cccc(-c2ccc(C[C@H](N)C(=O)N3CCN(Cc4cccc(Cl)c4Cl)CC3)cc2)c1 [Example 328] |  | 1.5 to 3 | 71 to 90 | 
51 | N[C@@H](Cc1ccc(-c2ccc(C(=O)O)cc2)cc1)C(=O)N1CCN(Cc2cccc(Cl)c2Cl)CC1 [Example 329] |  | > 3 | 71 to 90 | 
52 | COc1ccc(-c2ccc(C[C@H](N)C(=O)N3CCN(Cc4cccc(Cl)c4Cl)CC3)cc2)cc1OC [Example 331] | + (+ = 35-70) | > 3 |  | 
53 | Nc1cccc(-c2ccc(C[C@H](N)C(=O)N3CCN(Cc4cccc(Cl)c4Cl)CC3)cc2)c1 [Example 333] |  | > 3 | 71 to 90 | 
54 | COc1cc(-c2ccc(C[C@H](N)C(=O)N3CCN(Cc4cccc(Cl)c4Cl)CC3)cc2)cc(OC)c1OC [Example 334] |  | > 3 | 35 to 70 | 
55 | N[C@@H](Cc1ccc(-c2cccc3c2sc2ccccc23)cc1)C(=O)N1CCN(Cc2cccc(Cl)c2Cl)CC1 [Example 337] |  | < 1.5 |  | 91 to 100
56 | N[C@@H](Cc1ccc(-c2cnc3ccccc3c2)cc1)C(=O)N1CCN(Cc2cccc(Cl)c2Cl)CC1 [Example 341] |  | 1.5 to 3 |  | 71 to 90
